The text below walks through data of patent publication US9108929B2, “Quinazoline based EGFR inhibitors” (Curis, Inc., priority 2006, dated 2015).

Where only a bound is given, the exact number is not on record here.

Data set [1] deals with T1, human EGFR (His672-Ala1210) (Homo sapiens, UniProt P00533).
T1 construct: a construct expressing human EGFR (His672-Ala1210); GST (N); purchased Cell Signaling Technologies; host or cells: baculovirus expression system
The experiment in a line: EGFR kinase inhibition assay (HTScan EGF Receptor Kinase Assay Kit). It is filed as biochemical. As for the experimental part:
The ability of compounds to inhibit receptor kinase (EGFR) activity can be assayed using HTSCAN™ EGF Receptor Kinase Assay Kits (Cell Signaling Technologies, Danvers, Mass.). […] The protein is purified by one-step affinity chromatography using glutathione-agarose.
Immediately transfer enzyme from −80° C. to ice. Allow enzyme to thaw on ice. […] Return immediately to ice. […] Incubate reaction plate at room temperature for 30 minutes. […] Add 100 μl/well primary antibody. Incubate at room temperature for 60 minutes. […] Add 100 μl/well diluted antibody. Incubate at room temperature for 30 minutes. Wash five times with 200 μl/well PBS/T. Add 100 μl/well DELFIA® Enhancement Solution. Incubate at room temperature for 5 minutes.

The next data set addresses HER2/ErbB2 (Homo sapiens, UniProt P04626). Kind of data set: HER2/ErbB2 inhibition. It is filed as biochemical.
Data set [2] deals with HDAC (HeLa nuclear extract). Kind of data set: HDAC fluorimetric assay (HDAC enzymatic activity). It is filed as biochemical. As for the experimental part: HDAC inhibitors are screened using an HDAC fluorimetric assay kit (AK-500, Biomol, Plymouth Meeting, Pa.).
Each assay is setup as follows: Defrost all kit components and keep on ice until use. Dilute HeLa nuclear extract 1:29 in Assay Buffer (50 mM Tris/Cl, pH 8.0, 137 mM NaCl, 2.7 mM KCl, 1 mM MgCl2). Prepare dilutions of Trichostatin A (TSA, positive control) and test compounds in assay buffer (5× of final concentration). Dilute Fluor de Lys™ Substrate in assay buffer to 100 uM (50 fold=2× final). Dilute Fluor de Lys™ developer concentrate 20-fold (e.g. 50 μl plus 950 μl Assay Buffer) in cold assay buffer. Second, dilute the 0.2 mM Trichostatin A 100-fold in the 1× Developer (e.g. 10 μl in 1 ml; final Trichostatin A concentration in the 1× Developer=2 μM; final concentration after addition to HDAC/Substrate reaction=1 μM). Add Assay buffer, diluted trichostatin A or test inhibitor to appropriate wells of the microtiter plate. Add diluted HeLa extract or other HDAC sample to all wells except for negative controls. Allow diluted Fluor de Lys™ Substrate and the samples in the microtiter plate to equilibrate to assay temperature (e.g. 25 or 37° C. Initiate HDAC reactions by adding diluted substrate (25 μl) to each well and mixing thoroughly.
Allow HDAC reactions to proceed for 1 hour and then stopped them by addition of Fluor de Lys™ Developer (50 μl). Incubate plate at room temperature (25° C.) for 10-15 min. Read samples in a microtiter-plate reading fluorimeter capable of excitation at a wavelength in the range 350-380 nm and detection of emitted light in the range 440-460 nm.

T1 sequence (P00533 672-1210): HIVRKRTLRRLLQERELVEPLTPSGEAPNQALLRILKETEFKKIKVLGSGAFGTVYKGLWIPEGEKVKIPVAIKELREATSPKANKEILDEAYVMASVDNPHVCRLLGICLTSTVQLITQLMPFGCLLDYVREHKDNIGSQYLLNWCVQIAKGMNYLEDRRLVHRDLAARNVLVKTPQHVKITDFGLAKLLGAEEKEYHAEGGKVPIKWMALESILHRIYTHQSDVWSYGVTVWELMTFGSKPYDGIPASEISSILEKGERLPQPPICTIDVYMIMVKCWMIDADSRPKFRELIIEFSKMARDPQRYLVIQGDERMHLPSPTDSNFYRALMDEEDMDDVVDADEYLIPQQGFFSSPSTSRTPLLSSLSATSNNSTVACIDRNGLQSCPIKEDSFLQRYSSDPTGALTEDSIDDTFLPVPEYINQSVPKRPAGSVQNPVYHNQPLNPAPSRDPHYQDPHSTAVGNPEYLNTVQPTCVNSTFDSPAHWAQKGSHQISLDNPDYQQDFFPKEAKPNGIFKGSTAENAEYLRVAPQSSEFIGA
HER2/ErbB2, sequence (P04626 23-1255): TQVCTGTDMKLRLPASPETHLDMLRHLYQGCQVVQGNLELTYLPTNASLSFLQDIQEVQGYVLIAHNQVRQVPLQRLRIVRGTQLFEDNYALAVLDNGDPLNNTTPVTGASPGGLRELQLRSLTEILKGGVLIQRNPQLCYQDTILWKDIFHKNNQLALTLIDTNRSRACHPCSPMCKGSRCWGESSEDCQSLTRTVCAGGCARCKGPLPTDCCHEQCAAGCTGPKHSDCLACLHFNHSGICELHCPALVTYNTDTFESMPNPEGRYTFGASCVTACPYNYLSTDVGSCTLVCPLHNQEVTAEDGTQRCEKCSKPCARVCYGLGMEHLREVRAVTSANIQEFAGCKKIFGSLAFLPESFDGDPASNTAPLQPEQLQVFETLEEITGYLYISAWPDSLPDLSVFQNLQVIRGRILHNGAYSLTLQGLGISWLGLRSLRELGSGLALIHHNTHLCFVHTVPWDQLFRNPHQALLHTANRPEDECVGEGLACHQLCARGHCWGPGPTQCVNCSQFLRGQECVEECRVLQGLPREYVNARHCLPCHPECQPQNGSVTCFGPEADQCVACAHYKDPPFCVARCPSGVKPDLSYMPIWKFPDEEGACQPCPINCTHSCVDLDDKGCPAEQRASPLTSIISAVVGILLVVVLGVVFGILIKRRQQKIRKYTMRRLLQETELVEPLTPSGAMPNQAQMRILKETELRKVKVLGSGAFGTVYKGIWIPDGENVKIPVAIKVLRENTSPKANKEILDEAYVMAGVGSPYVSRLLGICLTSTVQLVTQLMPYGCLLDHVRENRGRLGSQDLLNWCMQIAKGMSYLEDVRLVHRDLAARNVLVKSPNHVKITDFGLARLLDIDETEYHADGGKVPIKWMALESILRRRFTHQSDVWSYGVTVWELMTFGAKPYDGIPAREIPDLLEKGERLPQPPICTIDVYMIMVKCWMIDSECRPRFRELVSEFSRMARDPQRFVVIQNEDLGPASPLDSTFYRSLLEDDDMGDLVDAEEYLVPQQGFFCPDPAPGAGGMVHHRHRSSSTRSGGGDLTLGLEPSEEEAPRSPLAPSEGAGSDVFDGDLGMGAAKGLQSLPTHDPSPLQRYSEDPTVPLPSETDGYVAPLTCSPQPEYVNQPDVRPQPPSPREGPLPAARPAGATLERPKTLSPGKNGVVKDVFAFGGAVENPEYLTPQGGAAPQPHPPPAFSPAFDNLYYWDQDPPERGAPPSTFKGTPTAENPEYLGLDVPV

For `C#Cc1cccc(Nc2ncnc3cc(OC)c(OCCCCC(=O)O)cc23)c1`, the IC50 (usually the concentration that inhibits the measured activity by half) in data set [1] is under 100 nM. Regarding `C#Cc1cccc(Nc2ncnc3cc(OC)c(OCCCCCCC(=O)O)cc23)c1`, the IC50 in data set [1] is under 100 nM; on HER2/ErbB2, 100 to 1000 nM; in data set [2], over 10000 nM. Consider `C#Cc1cc(Nc2ncnc3cc(OC)c(OCCCCCCC(=O)O)cc23)ccc1O`, for which the figures for the IC50 in data set [1] and in data set [2] were under 100 nM and over 10000 nM, respectively. In data set [2], `C#Cc1cc(Nc2ncnc3cc(OC)c(OCCCCC(=O)O)cc23)ccc1O` displayed an IC50 of over 10000 nM. `CCOC(=O)COc1ccc2ncnc(Nc3ccc(F)c(Cl)c3)c2c1` [Compound 0210-13, Ethyl 2-(4-(3-chloro-4-fluorophenylamino)quinazolin-6-yloxy)acetate]: the melting point (commonly the temperature, or range, at which the solid turns liquid) fell in the range of 161 to 163 °C.
